Experimental data taken from patent US20090281106A1, “PROPHYLACTIC AND/OR THERAPEUTIC METHOD FOR RHEUMATOID ARTHRITIS” (Kowa Co., Ltd, priority 2005, published 2009).

Test system: rat collagen-induced arthritis model
Assay: rat collagen-induced arthritis model, edema suppression in both hindlimbs
Format: in vivo, female Lewis rat (LEW/Crj)
Settings: oral, Drug A 3 mg/kg twice a day, Drug B 1.5 mg/kg once a day; for Relative index: edema volume of group / control group; for Edema volume for both hindlimbs: average ± standard error of 5 to 6 rats; for Decreasing rate: vs control group; for edema suppressive effect (in words): sole administration
Protocol: For the cases of combined administration of 2-benzyl-5-(4-chlorophenyl)-6-[4-(methylthio)phenyl]-2H-pyridazin-3-one (the product synthesized by the above-described method is used) (Drug A) and leflunomide (Drug B), and respective single drug administrations, the effect of edema suppression in both hindlimbs was determined by the following method (rat collagen-induced arthritis model) (FDA, CBER, CDER, CDRH: Guidance for industry—Clinical development programs for drugs, devices, and biological products for the treatment of rheumatoid arthritis (RA)—. (1999)). In addition, the test animal used was female Lewis rat (LEW/Crj) (obtained from Charles River Laboratories Japan, Inc.).
For each 8-week-old LEW/Crj rat, the volume of a portion extending from the ankle to the paw was measured for both hindlimbs (hereinafter, hindlimbs volume) by means of a plethysmometer for small animals (TK-101CMP, product of Unicom), and the total volume was taken as the hindlimbs volume upon initiation of test (hereinafter, Pre value). This Pre value was used as an index to divide the rats into groups by one-parameter-based block randomization, so that the values in the respective groups averaged out.
The collagen emulsion for sensitization that was used to induce arthritis in rats, was prepared by homogenizing a 0.3% Type II collagen solution (Collagen Research Center), Adjuvant Peptide (Peptide Institute, Inc.) and Adjuvant Incomplete Freund (DIFCO), using a Handy Micro Homogenizer (Microtec Nition, Co., Ltd.) under ice-cooling. The collagen emulsion thus prepared was intracutaneously administered at 10 sites in the back of each rat at a dose of 0.1 mL/site, to perform initial sensitization of the rat. Seven days after the initial sensitization, 0.12 mL of the same collagen emulsion was intracutaneously administered to the tail head of each rat, to perform booster sensitization.
Drug administration was conducted from the day after the initial sensitization through 29 days thereafter. The group for sole administration of Drug A was orally administered with the drug at 3 mg/kg, twice a day, in the morning (9:00 to 11:00) and in the evening (15:30 to 17:30). The group for sole administration of Drug B was orally administered with the drug at 1.5 mg/kg, once a day, in the afternoon (11:30 to 13:30). On the other hand, the group for combined administration of Drug A and Drug B was orally administered with Drug A at 3 mg/kg in the morning (9:00 to 11:00) and in the evening (15:30 to 17:30), and with Drug B at 1.5 mg/kg in the afternoon (11:30 to 13:30).
14, 18, 21, 26 and 31 days after the initial sensitization, the hindlimbs volume was measured again for each rat, and the difference between each of the values and the Pre value was determined to calculate the edema volume for both hindlimbs.
Tables 1 to 4 and FIGS. 1 to 4 represent the edema volume for both hindlimbs after 18, 21, 26 and 31 days from the initial sensitization, respectively, of the group for sole administration of Drug A, the group for sole administration of Drug B and the group for combined administration. The edema volume for both hindlimbs (mL) is expressed in the average value±standard error of 5 to 6 rats in each group. Furthermore, the decreasing rate is indicated as (average value of edema volume for both hindlimbs for the control group−the average value of edema volume for hindlimbs for each group)/(average value of edema volume for both hindlimbs for the control group)×100, while the relative index is indicated as (average value of edema volume for both hindlimbs for each group)/(average value of edema volume for both hindlimbs for the control group).

[1] = 18 days after initial sensitization
[2] = 21 days after initial sensitization
[3] = 26 days after initial sensitization
[4] = 31 days after initial sensitization

SMILES: CSc1ccc(-c2nn(Cc3ccccc3)c(=O)cc2-c2ccc(Cl)cc2)cc1 [Drug A, 2-benzyl-5-(4-chlorophenyl)-6-[4-(methylthio)phenyl]-2H-pyridazin-3-one]
- Relative index [1]: 0.89
- Edema volume for both hindlimbs [1]: 1.79 ± 0.17 mL
- Decreasing rate [1]: 11%
- Relative index [2]: 0.90
- Edema volume for both hindlimbs [2]: 1.54 ± 0.17 mL
- Decreasing rate [2]: 10%
- Relative index [3]: 0.99
- Edema volume for both hindlimbs [3]: 1.58 ± 0.27 mL
- Decreasing rate [3]: 1%
- Relative index [4]: 1.02
- Edema volume for both hindlimbs [4]: 1.44 ± 0.26 mL
- Decreasing rate [4]: −2%
- edema suppressive effect (in words): did not show a potent edema suppressive effect

SMILES: Cc1oncc1C(=O)Nc1ccc(C(F)(F)F)cc1 [Drug B, N-(4-trifluoromethylphenyl)-5-methylisoxazole-4-carboxamide]
- Relative index [1]: 0.28
- Edema volume for both hindlimbs [1]: 0.57 ± 0.32 mL
- Decreasing rate [1]: 72%
- Relative index [2]: 0.34
- Edema volume for both hindlimbs [2]: 0.58 ± 0.31 mL
- Decreasing rate [2]: 66%
- Relative index [3]: 0.49
- Edema volume for both hindlimbs [3]: 0.78 ± 0.28 mL
- Decreasing rate [3]: 51%
- Relative index [4]: 0.57
- Edema volume for both hindlimbs [4]: 0.81 ± 0.26 mL
- Decreasing rate [4]: 43%
- edema suppressive effect (in words): decrease in the edema suppressive effect in the stage after 18 days from the initial sensitization
